From the NIST ThermoML archive (doi:10.1021/acs.jced.8b00176)

Experiments:
[1] = 100 kPa, Liquid; for viscosity: Falling or rolling sphere viscometry; for speed of sound: Frequency=3 MHz, Single path-length method; for mass density: Vibrating tube method
[2] = xn = mol fraction of the nth substance listed; conditions: 100 kPa, Liquid; for viscosity: Falling or rolling sphere viscometry; for speed of sound: Frequency=3 MHz, Single path-length method; for mass density: Vibrating tube method

CCCCn1cc[n+](C)c1.O=S(=O)([O-])C(F)(F)F [1-butyl-3-methylimidazolium trifluoromethanesulfonate]
[1]
Conditions | mass density [kg/m3] | speed of sound [m/s] | viscosity [mPa·s]
298.15 K | 1297.46 | 1393.2 | 82.38
303.15 K | 1293.46 | 1382.8 | 66.69
308.15 K | 1289.47 | 1371.7 | 52.86
313.15 K | 1285.47 | 1360.7 | 43.67
318.15 K | 1281.47 | 1349.9 | 36.29
323.15 K | 1277.48 | 1338.8 | 30.57

CC#N [acetonitrile]
[1]
Conditions | mass density [kg/m3] | speed of sound [m/s] | viscosity [mPa·s]
298.15 K | 776.714 | 1278.5 | 0.34
303.15 K | 771.289 | 1258.4 | 0.32
308.15 K | 765.833 | 1238.2 | 0.31
313.15 K | 760.339 | 1218 | 0.3
318.15 K | 754.815 | 1197.9 | 0.29
323.15 K | 749.253 | 1177.8 | 0.28

CC#N [acetonitrile] + CCCCn1cc[n+](C)c1.O=S(=O)([O-])C(F)(F)F
[2], x2 = 0
Conditions | mass density [kg/m3] | speed of sound [m/s] | viscosity [mPa·s]
298.15 K | 776.714 | 1278.5 | 0.34
303.15 K | 771.289 | 1258.4 | 0.32
308.15 K | 765.833 | 1238.2 | 0.31
313.15 K | 760.339 | 1218 | 0.3
318.15 K | 754.815 | 1197.9 | 0.29
323.15 K | 749.253 | 1177.8 | 0.28

CN(C)C=O [dimethylformamide]
[1]
Conditions | mass density [kg/m3] | speed of sound [m/s] | viscosity [mPa·s]
298.15 K | 943.934 | 1457.1 | 0.81
303.15 K | 939.162 | 1437.8 | 0.77
308.15 K | 934.373 | 1418.5 | 0.72
313.15 K | 929.577 | 1399.2 | 0.69
318.15 K | 924.765 | 1379.9 | 0.65
323.15 K | 919.95 | 1360.7 | 0.62

CN(C)C=O [dimethylformamide] + CC#N
[2], x1 = 1
Conditions | mass density [kg/m3] | speed of sound [m/s] | viscosity [mPa·s]
298.15 K | 943.934 | 1457.1 | 0.81
303.15 K | 939.162 | 1437.8 | 0.77
308.15 K | 934.373 | 1418.5 | 0.72
313.15 K | 929.577 | 1399.2 | 0.69
318.15 K | 924.765 | 1379.9 | 0.65
323.15 K | 919.95 | 1360.7 | 0.62

CN(C)C=O [dimethylformamide] + CCCCn1cc[n+](C)c1.O=S(=O)([O-])C(F)(F)F
[2], x2 = 0
Conditions | mass density [kg/m3] | speed of sound [m/s] | viscosity [mPa·s]
298.15 K | 943.934 | 1457.1 | 0.81
303.15 K | 939.162 | 1437.8 | 0.77
308.15 K | 934.373 | 1418.5 | 0.72
313.15 K | 929.577 | 1399.2 | 0.69
318.15 K | 924.765 | 1379.9 | 0.65
323.15 K | 919.95 | 1360.7 | 0.62
